Assay results published in patent US20050065189A1, “Thiazole derivatives as cannabinoid receptor modulators” (SOLVAY PHARMACEUTICALS B.V., priority 2003, published 2005).
Like-named read-outs stand apart in the source and are kept apart here.

Experiments:
[1] = molecular target: T1, human cannabinoid CB2 receptor (Homo sapiens, UniProt P34972); assay: In vitro affinity for human cannabinoid CB2 receptors ([3H]CP-55,940 radioligand binding, CHO cell membranes)
T1 construct: expressed in transfected cells; host or cells: Chinese hamster ovary (CHO) cells, membrane preparation
Procedure: In Vitro Affinity for Human Cannabinoid CB2 Receptors
(§1) The affinity of the compounds of the invention for cannabinoid CB2 receptors can be determined using membrane preparations of Chinese hamster ovary (CHO) cells in which the human cannabinoid CB2 receptor is stably transfected in conjunction with [^3H]CP-55,940 as radioligand. After incubation of a freshly prepared cell membrane preparation with the [^3H]-ligand, with or without addition of compounds of the invention, separation of bound and free ligand is performed by filtration over glassfiber filters. Radioactivity on the filter is measured by liquid scintillation counting.

[2] = molecular target: T2, human cannabinoid CB1 receptor (Homo sapiens, UniProt P21554); assay: In vitro affinity for human cannabinoid CB1 receptors ([3H]CP-55,940 radioligand binding, CHO cell membranes)
T2 construct: expressed in transfected cells; host or cells: Chinese hamster ovary (CHO) cells, membrane preparation
Procedure: In vitro Affinity for Human Cannabinoid CB1 Receptors
as §1, with “CB1” for “CB2”

[3] = membranes of CHO cells stably transfected with human CB1, [3H]CP-55,940 radioligand, read-out: Receptor affinity Human CB1 pKi-value (converted)

T2 sequence (P21554 whole entry): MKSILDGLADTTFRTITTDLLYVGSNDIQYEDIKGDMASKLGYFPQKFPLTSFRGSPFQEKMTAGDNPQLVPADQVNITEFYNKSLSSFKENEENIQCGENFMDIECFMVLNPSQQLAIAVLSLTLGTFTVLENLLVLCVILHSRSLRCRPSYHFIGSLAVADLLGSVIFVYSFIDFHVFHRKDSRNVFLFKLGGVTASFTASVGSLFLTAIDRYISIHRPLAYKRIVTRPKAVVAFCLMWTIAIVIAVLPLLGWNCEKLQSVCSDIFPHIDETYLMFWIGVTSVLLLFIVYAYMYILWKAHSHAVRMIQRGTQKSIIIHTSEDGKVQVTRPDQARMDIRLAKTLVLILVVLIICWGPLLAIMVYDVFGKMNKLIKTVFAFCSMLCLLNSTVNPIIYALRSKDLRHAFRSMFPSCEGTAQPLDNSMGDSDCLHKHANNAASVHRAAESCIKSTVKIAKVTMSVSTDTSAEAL
T1 sequence (P34972 whole entry): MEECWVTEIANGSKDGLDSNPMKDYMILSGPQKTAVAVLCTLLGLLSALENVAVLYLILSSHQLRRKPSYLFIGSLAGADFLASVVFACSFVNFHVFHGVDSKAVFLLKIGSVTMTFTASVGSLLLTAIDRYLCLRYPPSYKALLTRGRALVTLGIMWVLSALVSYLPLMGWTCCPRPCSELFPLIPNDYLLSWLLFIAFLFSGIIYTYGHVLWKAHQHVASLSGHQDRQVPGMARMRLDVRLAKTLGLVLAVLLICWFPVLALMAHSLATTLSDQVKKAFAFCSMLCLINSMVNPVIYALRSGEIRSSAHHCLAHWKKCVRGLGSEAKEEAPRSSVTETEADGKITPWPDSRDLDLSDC

Row | SMILES | Ki ([1]; membranes of CHO cells stably transfected with human CB2, [3H]CP-55,940 radioligand, read-out: Receptor affinity Human CB2 pKi-value (converted)) | Ki [2, 3] | Ki [1] | Ki [2]
1 | CCCCCc1nc(C(=O)NC23CC4CC(CC(C4)C2)C3)sc1-c1ccccc1 [Example 9, N-(adamant-1-yl)-4-(n-pentyl)-5-phenylthiazole-2-carboxamide] | 7.94 nM | 15.8 nM | – | –
2 | CCCCCc1nc(C(=O)NC2CCCCC2)sc1-c1ccccc1 [Example 11] | – | – | 20 nM | 251 nM
3 | CCCCCCC(=O)c1nc(-c2ccccc2Cl)c(-c2ccccc2)s1 [Example 4] | – | 158 nM | – | –
4 | CCCCC(=O)c1nc(-c2ccc(Cl)cc2Cl)c(-c2ccccc2)s1 [Example 1, 1-[4-(2,4-dichlorophenyl)-5-phenylthiazol-2-yl]pentan-1-one] | – | 251 nM | – | –
